≈ marks a conversion by molar mass, not a printed value. Like-named read-outs stand apart in the source and are kept apart here.
What was measured:
[1] = system: Trichomonas foetus; assay: Infection tests with Trichomonas foetus in mice; assay type: in vivo; details: for % of Animals Dying After Infection (Mean Value): stomach tube, 3 successive days, NMRI mice
[2] = in vivo; details: mouse
[3] = system: Klebs. pneum. PCI 602; assay: microbe, parasite or virus in culture; assay type: cell-based; details: for MBC: read-out: Concentration from which subcultures no longer started; for MIC: read-out: Minimum inhibiting concentration (MHK), series dilution test
[4] = system: E. coli 6106; assay: microbe, parasite or virus in culture; assay type: cell-based; details: for MIC: read-out: Minimum inhibiting concentration (MHK), series dilution test
[5] = system: Ps. aeruginosa 2; assay: microbe, parasite or virus in culture; assay type: cell-based; details: for MIC: read-out: Minimum inhibiting concentration (MHK), series dilution test
[6] = system: Staph. aur. SG 511; assay: microbe, parasite or virus in culture; assay type: cell-based; details: for MIC: read-out: Minimum inhibiting concentration (MHK), series dilution test
[7] = system: Staph. aur. PCI 1203; assay: microbe, parasite or virus in culture; assay type: cell-based; details: for MBC: read-out: Concentration from which subcultures no longer started; for MIC: read-out: Minimum inhibiting concentration (MHK), series dilution test
[8] = system: streptococci group A 807; assay: microbe, parasite or virus in culture; assay type: cell-based; details: for MIC: read-out: Minimum inhibiting concentration (MHK), series dilution test
[9] = system: streptoc. group B 779; assay: microbe, parasite or virus in culture; assay type: cell-based; details: for MBC: read-out: Concentration from which subcultures no longer started; for MIC: read-out: Minimum inhibiting concentration (MHK), series dilution test
[10] = system: streptococci group C 805; assay: microbe, parasite or virus in culture; assay type: cell-based; details: for MBC: read-out: Concentration from which subcultures no longer started; for MIC: read-out: Minimum inhibiting concentration (MHK), series dilution test
[11] = system: enterococci; assay: microbe, parasite or virus in culture; assay type: cell-based; details: for MIC: read-out: Minimum inhibiting concentration (MHK), series dilution test
[12] = system: C. Albicans 49; assay: microbe, parasite or virus in culture; assay type: cell-based; details: Candida albicans; for MIC: read-out: Minimum inhibiting concentration (MHK), series dilution test
[13] = system: C. Paracrusei 45; assay: microbe, parasite or virus in culture; assay type: cell-based; details: for MBC: read-out: Concentration from which subcultures no longer started; for MIC: read-out: Minimum inhibiting concentration (MHK), series dilution test
[14] = system: 9 bacteria and 2 yeast strains; assay: In vitro tests with 9 bacteria and 2 yeast strains (summary); assay type: cell-based; details: Table 2
[15] = system: Serratia marcescens strain HY/a 21
[16] = system: S. typhimurium G 46
[17] = subcultures applied after 48 h, read after 24 h
[18] = 24 h, read-out: Concentration from which subcultures no longer started, subcultures applied after 24 h, read after 24 h
[19] = 48 h, read-out: Concentration from which subcultures no longer started, subcultures applied after 48 h, read after 48 h
[20] = read-out: Concentration from which subcultures no longer started, subcultures applied after 24 h, read after 48 h
[21] = read-out: Concentration from which subcultures no longer started, subcultures applied after 48 h, read after 24 h

Cc1ccccc1C(=O)NN=CC=Cc1ccc([N+](=O)[O-])o1 [A, 5-nitro-2-[(o-toluoylhydrazono)propen-1-yl]furan]
% of Animals Dying After Infection (Mean Value) ([1]; 3.12 mg/kg): 91.66%
% of Animals Dying After Infection (Mean Value) ([1]; 6.25 mg/kg): 36.33%
% of Animals Dying After Infection (Mean Value) ([1]; 12.5 mg/kg): 3.33%
animals survived / survival rate ([1]; dose of 6.25 mg/kg, mice infected with T. foetus): 63.3%
activity against T. foetus compared with metronidazol (in words) ([1]; infected mice): substantially better activity in mice infected with T. foetus
LD50 [2]: > 2000 mg/kg
MBC ([3]; 24 h): 31.2 µg/mL (≈ 104 µM)
MIC ([3]; 24 h): 7.8 µg/mL (≈ 26.1 µM)
MBC ([3]; 48 h): 31.2 µg/mL (≈ 104 µM)
MIC ([3]; 48 h): 7.8 µg/mL (≈ 26.1 µM)
MBC [3]: 31.2 µg/mL (≈ 104 µM)
Concentration from which subcultures no longer started [3, 17]: 31.25 µg/mL
MBC ([4]; Escherichia coli, 6106, 24 h, read-out: Concentration from which subcultures no longer started): 62.5 µg/mL (≈ 209 µM)
MIC ([4]; Escherichia coli, 6106, 24 h): 31.2 µg/mL (≈ 104 µM)
MBC ([4]; Escherichia coli, 6106, 48 h, read-out: Concentration from which subcultures no longer started): 62.5 µg/mL (≈ 209 µM)
MIC ([4]; Escherichia coli, 6106, 48 h): 62.5 µg/mL (≈ 209 µM)
MBC ([4]; Escherichia coli, 6106, read-out: Concentration from which subcultures no longer started): 62.5 µg/mL (≈ 209 µM)
Concentration from which subcultures no longer started [4, 17]: 62.5 µg/mL
MBC ([5]; Pseudomonas aeruginosa, 2, 24 h, read-out: Concentration from which subcultures no longer started): 250 µg/mL (≈ 835 µM)
MIC ([5]; Pseudomonas aeruginosa, 2, 24 h): 250 µg/mL (≈ 835 µM)
MBC ([5]; Pseudomonas aeruginosa, 2, 48 h, read-out: Concentration from which subcultures no longer started): 250 µg/mL (≈ 835 µM)
MIC ([5]; Pseudomonas aeruginosa, 2, 48 h): 250 µg/mL (≈ 835 µM)
MBC ([5]; Pseudomonas aeruginosa, 2, read-out: Concentration from which subcultures no longer started): 250 µg/mL (≈ 835 µM)
Concentration from which subcultures no longer started [5, 17]: 250 µg/mL
MBC [6, 18]: 125 µg/mL (≈ 418 µM)
MIC ([6]; 24 h): 31.2 µg/mL (≈ 104 µM)
MBC [6, 19]: 31.2 µg/mL (≈ 104 µM)
MIC ([6]; 48 h): 31.2 µg/mL (≈ 104 µM)
MBC [6, 20]: 125 µg/mL (≈ 418 µM)
MBC [6, 21]: 31.2 µg/mL (≈ 104 µM)
MBC ([7]; 24 h): 31.2 µg/mL (≈ 104 µM)
MIC ([7]; 24 h): 15.6 µg/mL (≈ 52.1 µM)
MBC ([7]; 48 h): 31.2 µg/mL (≈ 104 µM)
MIC ([7]; 48 h): 31.2 µg/mL (≈ 104 µM)
MBC [7]: 31.2 µg/mL (≈ 104 µM)
Concentration from which subcultures no longer started [7, 17]: 31.25 µg/mL
MBC [8, 18]: 125 µg/mL (≈ 418 µM)
MIC ([8]; 24 h): 31.2 µg/mL (≈ 104 µM)
MBC [8, 19]: 125 µg/mL (≈ 418 µM)
MIC ([8]; 48 h): 31.2 µg/mL (≈ 104 µM)
MBC [8, 20]: 125 µg/mL (≈ 418 µM)
MBC [8, 21]: 62.5 µg/mL (≈ 209 µM)
MBC ([9]; 24 h): 500 µg/mL (≈ 1670 µM)
MIC ([9]; 24 h): 250 µg/mL (≈ 835 µM)
MBC ([9]; 48 h): 500 µg/mL (≈ 1670 µM)
MIC ([9]; 48 h): 500 µg/mL (≈ 1670 µM)
MBC [9]: 500 µg/mL (≈ 1670 µM)
Concentration from which subcultures no longer started [9, 17]: 500 µg/mL
MBC ([10]; 24 h): 500 µg/mL (≈ 1670 µM)
MIC ([10]; 24 h): 250 µg/mL (≈ 835 µM)
MBC ([10]; 48 h): 500 µg/mL (≈ 1670 µM)
MIC ([10]; 48 h): 250 µg/mL (≈ 835 µM)
MBC [10]: 500 µg/mL (≈ 1670 µM)
Concentration from which subcultures no longer started [10, 17]: 500 µg/mL
MBC [11, 18]: 250 µg/mL (≈ 835 µM)
MIC ([11]; 24 h): 62.5 µg/mL (≈ 209 µM)
MBC [11, 19]: 500 µg/mL (≈ 1670 µM)
MIC ([11]; 48 h): 250 µg/mL (≈ 835 µM)
MBC [11, 20]: 250 µg/mL (≈ 835 µM)
MBC [11, 21]: 500 µg/mL (≈ 1670 µM)
MBC [12, 18]: 62.5 µg/mL (≈ 209 µM)
MIC ([12]; 24 h): 62.5 µg/mL (≈ 209 µM)
MBC [12, 19]: 125 µg/mL (≈ 418 µM)
MIC ([12]; 48 h): 62.5 µg/mL (≈ 209 µM)
MBC [12, 20]: 62.5 µg/mL (≈ 209 µM)
MBC [12, 21]: 125 µg/mL (≈ 418 µM)
MBC ([13]; 24 h): 125 µg/mL (≈ 418 µM)
MIC ([13]; 24 h): 62.5 µg/mL (≈ 209 µM)
MBC ([13]; 48 h): 125 µg/mL (≈ 418 µM)
MIC ([13]; 48 h): 125 µg/mL (≈ 418 µM)
MBC [13]: 125 µg/mL (≈ 418 µM)
Concentration from which subcultures no longer started [13, 17]: 125 µg/mL
in vitro antibacterial/antiyeast effect compared with metronidazol (in words) [14]: substantially more favorable picture
Mutation frequency [15]: 0
mutagenicity, spot test (in words) ([15]; Table 3a): no mutants induced by A are observed
Mutants/ml, Test ([16]; 200 mg/kg per os): 0 Mutants/ml
Mutants/ml, Test ([16]; 400 mg/kg per os): 0 Mutants/ml
mutagenicity, host mediated assay (in words) ([16]; Table 3b): no mutants induced by A are observed
Mutation frequency in test animals ([16]; in vivo): 0
